Experiments:
pigweed = experiment: Test A pre-/postemergence herbicide test; assay type: in vivo, Amaranthus retroflexus
Procedure, shortened: (§1)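 Directed soil spray to seeded pots (preemergence) or spray onto one- to two-leaf seedlings 2–10 cm tall (postemergence); loam/sand substrate throughout. Evaluated visually after about 10 days against untreated plants, 0 = no effect, 100 = complete control.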

barnyardgrass [1] = experiment: Test B flooded paddy test; assay type: in vivo, Echinochloa crus-galli; settings: 500 g ai/ha, Flood; scale of 0 to 100 where 0 is no effect and 100 is complete control
Procedure, shortened: (§2)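 Paddy-water application at a 3 cm flood, young plants having two leaves. Water level maintained; greenhouse, 13–15 days; visual 0–100 control rating.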

barnyardgrass [2] = experiment: Test A pre-/postemergence herbicide test; assay type: in vivo, Echinochloa crus-galli
Procedure, shortened: as §1

ryegrass, Italian = experiment: Test C pre-/postemergence herbicide test; assay type: in vivo, Lolium multiflorum; settings: Preemergence; for Plant response rating (scale of 0 to 100), Ryegrass, Italian: 250 g ai/ha
Procedure, shortened: (§3)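 Two application timings ran in parallel with identically formulated test chemicals (non-phytotoxic solvent, surfactant included): spray on seeded loam–sand soil, and spray on emerged plants 2 to 18 cm high. Evaluation at 13 to 15 days compared each species with controls, rated from 0 up to 100.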

morningglory = experiment: Test C pre-/postemergence herbicide test; assay type: in vivo, Ipomoea coccinea; settings: Preemergence; for Plant response rating (scale of 0 to 100), Morningglory: 250 g ai/ha
Procedure, shortened: as §3

waterhemp = experiment: Test C pre-/postemergence herbicide test; assay type: in vivo, Amaranthus rudis; settings: Preemergence; for Plant response rating (scale of 0 to 100), Waterhemp: 250 g ai/ha
From the text: (§4) Seeds of plant species selected from blackgrass (Alopecurus myosuroides), ryegrass, Italian (Italian ryegrass, Lolium multiflorum), wheat (winter wheat, Triticum aestivum), galium (catchweed bedstraw, Galium aparine), corn (Zea mays), crabgrass, large (large crabgrass, Digitaria sanguinalis), foxtail, giant (giant foxtail, Setaria faberii), johnsongrass (Sorghum halepense), lambsquarters (Chenopodium album), morningglory (Ipomoea coccinea), nutsedge, yellow (yellow nutsedge, Cyperus esculentus), pigweed (Amaranthus retroflexus), ragweed (common ragweed, Ambrosia elatior), soybean (Glycine max), barnyardgrass (Echinochloa crus-galli), oilseed rape (Brassica napus), waterhemp (common waterhemp, Amaranthus rudis), kochia (Kochia scoparia), oat, wild (wild oat, Avena fatua), surinam grass (Brachiaria decumbens), foxtail, green (green foxtail, Setaria viridis), goosegrass (Eleusine indica), bromegrass, downy (downy bromegrass, Bromus tectorum), nightshade (eastern black nightshade, Solanum ptycanthum), cocklebur (common cocklebur, Xanthium strumarium), cupgrass, woolly (woolly cupgrass, Eriochloa villosa), bermudagrass (Cynodon dactylon), sunflower, (common oilseed sunflower, Helianthus annuus), Russian thistle (Salsola kali) and velvetleaf (Abutilon theophrasti) were planted into a blend of loam soil and sand and treated preemergence with test chemicals formulated in a non-phytotoxic solvent mixture which included a surfactant. At the same time, plants selected from these crop and weed species and also barley (winter barley, Hordeum vulgare), […]), chickweed (common chickweed, Stellaria media), deadnettle (henbit deadnettle, Lamium amplexicaule), and canarygrass (littleseed canarygrass, Phalaris minor) were planted in pots containing Redi-Earth® planting medium (Scotts Company, 14111 Scottslawn Road, Marysville, Ohio 43041) comprising spaghnum peat moss, vermiculite, wetting agent and starter nutrients and treated with postemergence applications of test chemicals formulated in the same manner. Plants ranged in height from 2 to 18 cm (1- to 4-leaf stage) for postemergence treatments. Treated plants and controls were maintained in a greenhouse for 13 to 15 days, after which time all species were compared to controls and visually evaluated. Plant response ratings, summarized in Table C, are based on a scale of 0 to 100 where 0 is no effect and 100 is complete control. A dash (-) response means no test result.

soybean = experiment: Test C pre-/postemergence herbicide test; assay type: in vivo, Glycine max; settings: Preemergence; for Plant response rating (scale of 0 to 100), Soybean: 250 g ai/ha
Procedure, shortened: as §3

ducksalad = experiment: Test B flooded paddy test; assay type: in vivo, Heteranthera limosa; settings: 500 g ai/ha, Flood; scale of 0 to 100 where 0 is no effect and 100 is complete control
Procedure, shortened: as §2

barnyardgrass [3] = experiment: Test C pre-/postemergence herbicide test; assay type: in vivo, Echinochloa crus-galli; settings: Preemergence; for Plant response rating (scale of 0 to 100; 0 is no effect, 100 is complete control), Barnyardgrass: 250 g ai/ha
From the text: as §4

rice = experiment: Test B flooded paddy test; assay type: in vivo, Oryza sativa; settings: 500 g ai/ha, Flood; scale of 0 to 100 where 0 is no effect and 100 is complete control
Procedure, shortened: as §2

nutsedge, yellow = experiment: Test C pre-/postemergence herbicide test; assay type: in vivo, Cyperus esculentus; settings: Preemergence; for Plant response rating (scale of 0 to 100), Nutsedge, Yellow: 250 g ai/ha
Procedure, shortened: as §3

[4] = Postemergence, 125 g ai/ha, visual rating on 0 to 100 scale (0 no effect, 100 complete control), approx. 10 days
[5] = Postemergence, 500 g ai/ha, 0 to 100 scale (0 no effect, 100 complete control)
[6] = Preemergence, 125 g ai/ha, 0 to 100 scale where 0 is no effect and 100 is complete control
[7] = preemergence, 500 g ai/ha, 0 to 100 scale, 0 is no effect and 100 is complete control
[8] = Postemergence, 125 g ai/ha, 0 to 100 scale, 0 is no effect, 100 is complete control
[9] = 31 g ai/ha, scale 0 to 100, 0 is no effect and 100 is complete control
[10] = 62 g ai/ha, scale 0 to 100 (0 no effect, 100 complete control)
[11] = 125 g ai/ha, scale 0 to 100 (0 no effect, 100 complete control)
[12] = Preemergence, 500 g ai/ha, visual rating on 0 to 100 scale (0 no effect, 100 complete control)
[13] = 125 g ai/ha, visual rating, 0 to 100 scale, 0 no effect, 100 complete control, approximately 10 days, preemergence

Compound | Plant response rating, Pigweed (pigweed; [4]) | Plant response rating, Pigweed (pigweed; [6]) | Plant response rating, Pigweed (pigweed; [7]) | Plant response rating, Barnyardgrass (barnyardgrass [1]) | Plant response rating, Barnyardgrass (barnyardgrass [2]; [8]) | Plant response rating, Barnyardgrass (barnyardgrass [2]; [5]) | Plant response rating, Barnyardgrass (barnyardgrass [2]; [6]) | Plant response rating, Barnyardgrass (barnyardgrass [2]; [7]) | Ryegrass, Italian plant response rating (ryegrass, Italian; [9]) | Ryegrass, Italian plant response rating (ryegrass, Italian; [10]) | Morningglory plant response rating (morningglory; [10]) | Plant response rating (scale of 0 to 100), Morningglory (morningglory) | Waterhemp plant response rating (waterhemp; [10]) | Soybean plant response rating (soybean; [10]) | Plant response rating, Ducksalad (ducksalad) | Plant response rating, Barnyardgrass (barnyardgrass [3]; [11]) | Plant response rating (scale of 0 to 100; 0 is no effect, 100 is complete control), Barnyardgrass (barnyardgrass [3]) | Plant response rating, Rice (rice) | Nutsedge, Yellow plant response rating (nutsedge, yellow; [10]) | Plant response rating (scale of 0 to 100), Nutsedge, Yellow (nutsedge, yellow) | also measured
O=C1NCC(c2cc(F)cc(F)c2)C1C(=O)Nc1ccccc1Cl (racemic) [Compound 280] | 0 | 0 | 0 | 65 | 80 | 90 | 80 | 80 | 0 | 0 | 25 | 30 | 65 | 5 | 100 | 85 | 95 | 0 | 0 | 100 | Plant response rating, Pigweed (pigweed; [5]): 0; Plant response rating, Ryegrass, Italian (ryegrass, Italian; [11]): 0; Plant response rating (scale of 0 to 100), Ryegrass, Italian (ryegrass, Italian): 5; Morningglory plant response rating (morningglory; [9]): 10; Plant response rating, Morningglory (morningglory; [11]): 0; Waterhemp plant response rating (waterhemp; [9]): 0; Plant response rating, Waterhemp (waterhemp; [11]): 75; Plant response rating (scale of 0 to 100), Waterhemp (waterhemp): 35; Soybean plant response rating (soybean; [9]): 0; Plant response rating, Soybean (soybean; [11]): 0; Plant response rating (scale of 0 to 100), Soybean (soybean): 0; Barnyardgrass plant response rating (barnyardgrass [3]; [9]): 55; Barnyardgrass plant response rating (barnyardgrass [3]; [10]): 65; Nutsedge, Yellow plant response rating (nutsedge, yellow; [9]): 0; Plant response rating, Nutsedge, Yellow (nutsedge, yellow; [11]): 0
O=C1NCC(c2ccc(OC(F)F)cc2)C1C(=O)Nc1cccc(F)c1F (racemic) [Compound 350] | 20 | 50 | – | 60 | – | 90 | 90 | – | – | 0 | 100 | 100 | 50 | 0 | 100 | 90 | 90 | 0 | 0 | 0 | Pigweed plant response rating (pigweed; [12]): 80; Plant response rating, Barnyardgrass (barnyardgrass [2]; [4]): 70; Barnyardgrass plant response rating (barnyardgrass [2]; [12]): 90; Plant response rating, Ryegrass, Italian (ryegrass, Italian; 125 g ai/ha, scale 0 to 100): 5; Plant response rating, Ryegrass, Italian (ryegrass, Italian; 31 g ai/ha, scale 0 to 100): 0; Plant response rating, Morningglory (morningglory; 125 g ai/ha, scale 0 to 100): 100; Plant response rating, Morningglory (morningglory; 31 g ai/ha, scale 0 to 100): 100; Plant response rating, Waterhemp (waterhemp; 125 g ai/ha, scale 0 to 100): 90; Plant response rating, Waterhemp (waterhemp; 31 g ai/ha, scale 0 to 100): 0; Plant response rating, Soybean (soybean; 125 g ai/ha, scale 0 to 100): 0; Plant response rating, Soybean (soybean; 31 g ai/ha, scale 0 to 100): 0; Barnyardgrass plant response rating (barnyardgrass [3]; [10]): 90; Plant response rating, Barnyardgrass (barnyardgrass [3]; 31 g ai/ha, scale 0 to 100): 75; Plant response rating, Nutsedge, Yellow (nutsedge, yellow; 125 g ai/ha, scale 0 to 100): 0; Plant response rating, Nutsedge, Yellow (nutsedge, yellow; 31 g ai/ha, scale 0 to 100): 0
O=C1NCC(c2ccc(Cl)cc2)C1C(=O)Nc1cccc(F)c1F (centres unmarked) [Compound 218] | – | – | 70 | 70 | 60 | – | – | 90 | 0 | 0 | 0 | 20 | 75 | 5 | 100 | 95 | 95 | 0 | 0 | 0 | Plant response rating, Pigweed (pigweed; [13]): 30; Plant response rating, Pigweed (pigweed; [8]): 0; Pigweed plant response rating (0 to 100 scale, 0 is no effect, 100 is complete control) (pigweed; Postemergence, 500 g ai/ha): 40; Plant response rating, Barnyardgrass (barnyardgrass [2]; [13]): 80; Barnyardgrass plant response rating (0 to 100 scale, 0 is no effect, 100 is complete control) (barnyardgrass [2]; Postemergence, 500 g ai/ha): 90; Plant response rating, Ryegrass, Italian (ryegrass, Italian; [11]): 0; Plant response rating (scale of 0 to 100), Ryegrass, Italian (ryegrass, Italian): 50; Morningglory plant response rating (morningglory; [9]): 0; Plant response rating, Morningglory (morningglory; [11]): 25; Waterhemp plant response rating (waterhemp; [9]): 30; Plant response rating, Waterhemp (waterhemp; [11]): 90; Plant response rating (scale of 0 to 100), Waterhemp (waterhemp): 90; Soybean plant response rating (soybean; [9]): 0; Plant response rating, Soybean (soybean; [11]): 40; Plant response rating (scale of 0 to 100), Soybean (soybean): 20; Barnyardgrass plant response rating (barnyardgrass [3]; [9]): 80; Plant response rating, Barnyardgrass (barnyardgrass [3]; 62 g ai/ha, scale 0 to 100): 90; Nutsedge, Yellow plant response rating (nutsedge, yellow; [9]): 0; Plant response rating, Nutsedge, Yellow (nutsedge, yellow; [11]): 0

From patent US10294202B2, “Pyrrolidinones as herbicides” (FMC Corporation, priority 2013, dated 2019)
